Assay results published in US20060100179A1, “Compositions and methods for use in targeting vascular destruction” (priority 2002, published 2006).
Where two headings read alike, the source gives them in different places.

Assays:
[1] = system: HDF (human neonatal dermal fibroblasts); assay: Cell survival by clonogenic assay (colony count or MTT) in HDF
Procedure: (§1) Cell culture. Four commercially available human cell lines were grown in the indicated media below in 5% CO2, 80% humidity and 37EC: • 1. HL60 human leukemic cells, a pro-apoptotic cell line—cultured in RPMI 1640 fortified with 10% fetal calf serum. • 2. K562 human leukemic cells, an apoptotic-resistant cell line—cultured in RPMI 1640 fortified with 10% fetal calf serum. • 3. Human neonatal microvascular endothelial cells (HMVEC)—cultured in medium 131+microvascular growth supplement (MVGS)+attachment factor (AF)=500 ml+25 ml (AF is added 2-3 ml/T-25 flask; all reagents supplied by Cascade Biologics, Inc., Portland, Oreg.). • 4. Human neonatal dermal fibroblasts (HDF)—cultured in medium 106+low serum growth supplement (LSGS)=500 ml+10 ml (Cascade Biologics, Inc.).
(§2) Cell survival by clonogenic assay. This assay is based on a description reported by Schweitzer et al. (Expt. Haematol. 21: 573-578, 1993) with slight modifications. […] After 5 days of incubation under the standard culture conditions stated above, colonies (>40 cells) were counted by an inverted light microscope or estimated by MTT assay. IC50 values were obtained from the fitted curves of percentage of the control versus the drug concentrations.
Experiment 1. HLGO, K562, HDF, and HMVEC cells were either cultured in 96-well plates at the indicated concentrations (FIGS. 2A and 2B) for 5 days in the presence of A4 prodrug, or after 2 hours exposure the drug-containing media was removed, fresh media added, and the cells cultured for an additional 5 days. Clonogenic growth was recorded after 5 days incubation for all treatments.
Experiment 2. HMVEC and HDF were cultured in 96-well microtiter plates initially containing 800 cells/well. The cells were cultured for 1 hour in the presence of the indicated concentrations of A4 prodrug ∀1 unit of alkaline phosphatase. The medium was removed, the cells washed, and fresh medium added, and the cells were incubated for an additional 5 days. Clonogenic growth was then established by the MTT assay.
(§3) The combretastatins are a family of naturally occurring tubulin binding agents comprising an A-,B-,C- and D- series of structures (U.S. Pat. Nos. 4,940,726; 4,996,237; 5,409,953; and 5,569,786). […] The compounds were added to microcultures in DMSO (i.e <0.5%) and toxicity was evaluated by MTT assay after 5-7 days in culture.
All of the compounds were evaluated for toxicity after a one-hour exposure in microculture and assayed for cytotoxicity by MTT assay after an additional 5 days' incubation in culture.

[2] = system: HMVEC (human neonatal microvascular endothelial cells); assay: Cell survival by clonogenic assay (colony count or MTT) in HMVEC; details: for clonogenic toxicity to HMVEC after 1 hour exposure versus 6 hours: 1 and 6 hours exposure, washed, 3 more days, MTT assay (FIG. 5); for clonogenic cytotoxicity, HMVEC, limited exposure: exposure limited to 2 hours, clonogenic cytotoxicity estimated at 5 days (FIG. 2A)
Procedure: as §1
as §2, with “concentrations. […]” for “concentrations.”
as §3, with “culture. […]” for “culture.”

[3] = system: HL60 human leukemic cells; assay: Cell survival by clonogenic assay in HL-60; format: cell-based
Source text: (§4) Cell survival by clonogenic assay.

[4] = system: K562 human leukemic cells; assay: Cell survival by clonogenic assay in K562; format: cell-based; details: 5 days exposure (FIG. 2B); read-out: IC50 clonogenic cytotoxicity, K562
Source text: as §4

[5] = system: ocular vessels; assay: Ocular neovascularization induced by lipid hydroperoxide (LHP) in rabbit eyes; format: in vivo; details: i.v. 40 mg/kg once a day for five days, eyes examined seven days later
Procedure: To simulate pathogenic ocular angiogenesis, ocular neovascularization was induced by administration of lipid hydroperoxide (LHP) by intra-corneal injection at a dosage of 30 μg to rabbit eyes. Seven to 14 days later, ocular vessels formed in the injected eyes due to LHP insult. The subjects were divided into two groups; those of one group were given combretastatin A4 disodium phosphate by intravenous administration at a dosage of 40 mg/kg once a day for five days, while a vehicle without combretastatin A4 disodium phosphate was administered to the other group by i.v. administration as a dosage of water for the same time period. The eyes of both groups were examined seven days later.

[6] = read-out: IC50 clonogenic toxicity values, HDF, compounds added in DMSO (<0.5%), MTT assay after 5-7 days in culture
[7] = read-out: IC50 values HDF, one-hour exposure, MTT assay after additional 5 days' incubation
[8] = read-out: IC50 clonogenic toxicity values, HMVEC, compounds added in DMSO (<0.5%), MTT assay after 5-7 days in culture
[9] = read-out: IC50 values HMVEC, one-hour exposure, MTT assay after additional 5 days' incubation
[10] = compounds added in DMSO (<0.5%), MTT assay after 5-7 days in culture, read-out: IC50 clonogenic toxicity values, HL-60

Row | Compound | IC50 [1, 6] [nM] | IC50 [1, 7] [nM] | IC50 [2, 8] [nM] | IC50 [2, 9] [nM] | IC50 [3, 10] [nM] | further results
1 | COc1ccc(/C=C\c2cc(OC)c(OC)c(OC)c2)c(O)c1O [Combretastatin A1] | 20 | 500 to 1000 | 500 | 10000 to 15000 |  | clonogenic toxicity to HMVEC after 1 hour exposure versus 6 hours [2]: did not induce maximum toxicity
2 | COc1ccc(/C=C\c2cc(OC)c3c(c2)OCO3)cc1O [Combretastatin A2, reference compound] | 25 to 35 |  | 30 to 40 |  | 15 | 
3 | COc1ccc(/C=C\c2cc(O)c(OC)c(OC)c2)cc1O [Combretastatin A3, reference compound] | 8 to 10 |  | > 12 |  | 5 | 
4 | COc1ccc(/C=C\c2cc(OC)c(OC)c(OC)c2)cc1OP(=O)([O-])[O-].[Na+].[Na+] [Combretastatin A4 Na2PO4, combretastatin A4 disodium phosphate] |  | > 500 |  | 75 to 150 |  | cytotoxicity to HDF with added alkaline phosphatase, compared with HMVEC ([1]; 1 hour exposure, 1 unit alkaline phosphatase added (FIG. 3)): the same for HMVEC and HDF; cytotoxicity to HDF without added alkaline phosphatase ([1]; 1 hour exposure, no added alkaline phosphatase (FIG. 3)): lack of cytotoxicity; IC50 ([1]; read-out: IC50 clonogenic cytotoxicity, HDF, 5 days exposure (FIG. 2B)): 1.5 to 2.5 nM; clonogenic cytotoxicity, HMVEC, limited exposure [2]: only HMVEC showed IC50 cytotoxicity; clonogenic cytotoxicity, HMVEC, limited exposure ([2]; listed as A4 prodrug): quite sensitive; IC50 ([2]; read-out: IC50 clonogenic cytotoxicity, HMVEC, 5 days exposure (FIG. 2B)): 1.5 to 2.5 nM; IC50 ([3]; 5 days exposure (FIG. 2B), read-out: IC50 clonogenic cytotoxicity, HL60): 1.5 to 2.5 nM; IC50 [4]: 1.5 to 2.5 nM; reduction of vessels [5]: ≥ 40%
5 | COc1ccc(/C=C\c2cc(OC)c(OC)c(OC)c2)cc1O [Combretastatin A4] | 1 to 2 | 50 | 1 to 2 | 75 to 150 | 1 to 2 | 
6 | COc1ccc(CCc2cc(OC)c(OC)c(OC)c2)c(O)c1O [Combretastatin B1, reference compound] | 200 to 300 |  | 200 to 300 |  | 500 | 
7 | COc1ccc(CCc2cc(O)c(OC)c(OC)c2)cc1O [Combretastatin B2, reference compound] | 1100 |  | 800 to 1000 |  | 125 | 
8 | O=C1N[C@H]2[C@H](O)[C@H](O)[C@@H](O)[C@H](O)[C@@H]2c2cc3c(c(O)c21)OCO3 [Pancratistatin] |  |  |  |  |  | IC50 ([1]; Homo sapiens, Fibroblast, read-out: IC50 values HDF): 20000 nM; IC50 ([2]; Homo sapiens, HMVEC, read-out: IC50 values HMVEC): 20000 to 25000 nM
9 | CC(=O)O[C@H]1C(=O)[C@@]2(C)[C@H]([C@H](OC(=O)c3ccccc3)[C@]3(O)C[C@H](OC(=O)[C@H](O)[C@@H](NC(=O)c4ccccc4)c4ccccc4)C(C)=C1C3(C)C)[C@]1(OC(C)=O)CO[C@@H]1C[C@@H]2O [taxol, reference compound] |  |  |  |  |  | clonogenic toxicity to HMVEC after 1 hour exposure versus 6 hours [2]: did not induce maximum toxicity
10 | CC(=O)O[C@@]12CO[C@@H]1C[C@H](O)[C@@]1(C)C(=O)[C@H](O)C3=C(C)[C@@H](OC(=O)[C@H](O)[C@@H](NC(=O)OC(C)(C)C)c4ccccc4)C[C@@](O)([C@@H](OC(=O)c4ccccc4)[C@H]21)C3(C)C [taxotere, reference compound] |  |  |  |  |  | clonogenic toxicity to HMVEC after 1 hour exposure versus 6 hours [2]: did not induce maximum toxicity
11 | Amino Combretastatin A4 Phosphoroamidate |  | 15000 to 20000 |  | 8000 to 10000 |  | 
12 | Combretastatin A1 Na2PO4 |  | 5000 to 10000 |  | 10000 to 15000 |  | 
13 | Combretastatin A1 Nicotinamide PO4 |  | > 10000 |  | 10000 to 15000 |  | 
14 | Combretastatin A1 Piperazine PO4 |  | 1000 to 2000 |  | 10000 to 15000 |  | 
15 | Pancratistatin Na2PO4 |  | 60000 to 80000 |  | 20000 to 25000 |  | 
